What was measured:
[1] = system: Chenopodium album L. (common lambsquarters, CHEAL); assay: Greenhouse postemergence trial CHEAL; type: in vivo; settings: for % visual injury (Obs): CHEAL, alone 280 g/ha;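 for all read-outs here: greenhouse plants sprayed at second to third true leaf stage, injury rated by eye after 20-22 d versus solvent-blank sprayed controls, 0 = no injury, 100 = complete kill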
[2] = system: Viola tricolor (wild pansy, VIOTR); assay: Greenhouse postemergence trial VIOTR;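 note: greenhouse plants sprayed at second to third true leaf stage, injury rated visually after 20-22 d against solvent-blank sprayed controls, 0 meaning no injury and 100 complete kill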
[3] = system: Abutilon theophrasti (velvetleaf, ABUTH); assay: Greenhouse postemergence trial ABUTH; type: in vivo; settings: Dichlorprop-K 280 g/ha (Table 40)
Experimental: (§1) Seeds of the desired test plant species were planted in a 90:10% v/v (volume/volume) mixture of PRO-MIX® BX (Premier Tech Horticulture, Quakertown, PA, USA) and PROFILE® GREENS GRADE™ (Profile Products LLC, Buffalo Grove, IL, USA) planting mixture, which typically has a pH of 5.2 to 6.2 and an organic matter content of at least 50 percent, in plastic pots with a surface area of 103.2 square centimeters (cm^2). […] The plants were grown for 7-36 days (d) in a greenhouse with an approximate 14-hour (h) photo-period which was maintained at about 23° C. during the day and 22° C. during the night. Nutrients and water were added on a regular basis and supplemental lighting was provided with overhead metal halide 1000-Watt lamps as necessary. The plants were employed for testing when they reached the second or third true leaf stage.
(§2) Emulsifiable concentrates of each of each pyridine carboxylate herbicide (Compound A or Compound B) were prepared at 100 grams acid equivalent per liter (g ae/L). The emulsifiable concentrates also included a safener, cloquintocet-mexyl, at 120 grams active ingredient per liter (g ai/L), unless otherwise noted below. An aliquot of each emulsifiable concentrate was placed in a 25 mL glass vial and diluted with an aqueous mixture of 1.25% (v/v) ACTIROB® B esterified rapeseed oil (Bayer Crop Science, Research Triangle Park, NC, USA) or MSO® Concentrate with LECI-TECH® methylated soybean oil (Loveland Products, Loveland, CO, USA) to obtain concentrated stock solutions at the highest application rate for each herbicide, based upon a 12 milliliter (mL) application volume at a rate of 187 liters per hectare (L/ha). The concentrated stock solutions were further diluted with an aqueous mixture of 1.25% v/v ACTIROB® B or MSO® Concentrate with LECI-TECH® to obtain stock solutions at reduced application rates for each herbicide. Spray solutions of the herbicide combinations (Compound A or Compound B plus synthetic auxin herbicide or auxin transport inhibitor) were prepared by adding weighed amounts or aliquots of the synthetic auxin herbicide or auxin transport inhibitor to the stock solutions of Compound A or Compound B to form 12-mL spray solutions in two-way combinations.
(§3) The spray solutions were applied to the plant material with an overhead Mandel track sprayer equipped with 8002E nozzles calibrated to deliver 187 L/ha over an application area of 0.503 square meters (m^2) at a spray height of 18 inches (43 centimeters (cm)) above the average plant canopy. Control plants were sprayed in the same manner with the solvent blank. All pyridine carboxylate herbicide (component a) application rates are given as “g ae/ha” and all synthetic auxin herbicide or auxin transport inhibitor (component b) application rates are given as “g ai/ha.”
(§4) The treated plants and control plants were placed in a greenhouse as described above and watered by sub-irrigation to prevent wash-off of the test compounds. After 20-22 d, the condition of the test plants as compared with that of the control plants was determined visually and scored on a scale of 0 to 100 percent where 0 corresponds to no injury and 100 corresponds to complete kill.

[4] = system: Polygonum convolvulus (wild buckwheat, POLCO); assay: Greenhouse postemergence trial POLCO; type: in vivo; settings: for % visual injury (Obs): alone 280 g/ha
[5] = system: Cirsium arvense (Canadian thistle, CIRAR); assay: Greenhouse postemergence trial CIRAR; type: in vivo
[6] = system: Amaranthus retroflexus (pigweed, AMARE); assay: Greenhouse postemergence trial AMARE; type: in vivo; settings: for % visual injury (Obs): AMARE, alone 280 g/ha;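 for all read-outs here: Greenhouse-grown plants sprayed at second to third true leaf stage, injury rated by eye after 20-22 d versus solvent-blank sprayed controls, 0 = no injury, 100 = complete kill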
Experimental: The plants were grown for 7-36 days (d) in a greenhouse with an approximate 14-hour (h) photo-period which was maintained at about 23° C. during the day and 22° C. during the night. Nutrients and water were added on a regular basis and supplemental lighting was provided with overhead metal halide 1000-Watt lamps as necessary. The plants were employed for testing when they reached the second or third true leaf stage.
The emulsifiable concentrates also included a safener, cloquintocet-mexyl, at 120 grams active ingredient per liter (g ai/L), unless otherwise noted below.
Control plants were sprayed in the same manner with the solvent blank. All pyridine carboxylate herbicide (component a) application rates are given as “g ae/ha” and all synthetic auxin herbicide or auxin transport inhibitor (component b) application rates are given as “g ai/ha.”
as §4

[7] = system: Ipomoea hederacea (ivyleaf morningglory, IPOHE); assay: Greenhouse postemergence trial IPOHE; type: in vivo; settings: Dichlorprop-K 280 g/ha (Table 40)
[8] = system: Stellaria media (chickweed, STEME); assay: Greenhouse postemergence trial STEME; type: in vivo
Experimental: as §1, §2, §3, §4

[9] = system: Brassica napus (winter rape, BRSNW); assay: Greenhouse postemergence trial BRSNW; type: in vivo
[10] = system: Matricaria chamomilla (wild chamomile, MATCH); assay: Greenhouse postemergence trial MATCH; type: in vivo; settings: for % visual injury (Obs): alone 280 g/ha;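 for all read-outs here: greenhouse plants sprayed at second to third true leaf stage, injury rated by eye 20-22 d later versus solvent-blank controls on 0–100 scale, 0 no injury, 100 complete kill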
[11] = system: Helianthus annuus (common sunflower, HELAN); assay: Greenhouse postemergence trial HELAN; type: in vivo; settings: Dichlorprop-K 280 g/ha (Table 40)
[12] = system: Sinapis arvensis (wild mustard, SINAR); assay: Greenhouse postemergence trial SINAR; type: in vivo; settings: SINAR
[13] = system: Rumex obtusifolius (broad-leaf dock, RUMOB); assay: Greenhouse postemergence trial RUMOB; type: in vivo; settings: Dichlorprop-K 280 g/ha (Table 40)
[14] = system: Kochia scoparia (kochia, KCHSC); assay: Greenhouse postemergence trial KCHSC; type: in vivo; settings: for % visual injury (Obs): alone 280 g/ha
[15] = system: Glycine max (volunteer soybean, GLXMA); assay: Greenhouse postemergence trial GLXMA; type: in vivo; settings: Dichlorprop-K 280 g/ha (Table 40)
Experimental: as §1, §2, §3, §4

[16] = system: Triticum aestivum (spring wheat, TRZAS); type: in vivo; settings: TRZAS
[17] = system: Capsella bursa-pastoris (shepherd's purse, CAPBP); assay: Greenhouse postemergence trial CAPBP; type: in vivo; settings: Capsella bursa-pastoris, post-emergence; CAPBP; alone, 560 g/ha; read-out: % visual injury Obs
[18] = system: Veronica persica (bird's-eye speedwell, VERPE); assay: Greenhouse postemergence trial VERPE; type: in vivo
Experimental: as §1, §2, §3, §4

[19] = system: Triticum aestivum (winter wheat, TRZAW); assay: Greenhouse postemergence crop phytotoxicity TRZAW; type: in vivo; settings: TRZAW; alone, 560 g/ha
Experimental: as §1, §2, §3, §4

[20] = system: Papaver rhoeas (corn poppy), herbicide-resistant (PAPRH-R); assay: Greenhouse postemergence trial PAPRH-R; type: in vivo
[21] = system: Papaver rhoeas (corn poppy, PAPRH); assay: Greenhouse postemergence trial PAPRH; type: in vivo; settings: Papaver rhoeas, post-emergence; PAPRH; alone, 560 g/ha; read-out: % visual injury Obs
[22] = system: Viola arvensis (field violet, VIOAR); assay: Greenhouse postemergence trial VIOAR; type: in vivo; settings: Viola arvensis, post-emergence; VIOAR; alone, 560 g/ha; read-out: % visual injury Obs
Experimental: as §1, §2, §3, §4

[23] = system: Salsola kali (Russian thistle, SASKR); assay: Greenhouse postemergence trial SASKR; type: in vivo; settings: SASKR;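 note: greenhouse plants sprayed at second or third true leaf stage, injury rated by eye after 20-22 d against solvent-blank controls, 0 meaning no injury, 100 complete kill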
[24] = system: Cyanus segetum (cornflower, CENCY); assay: Greenhouse postemergence trial CENCY; type: in vivo; settings: Centaurea cyanus, post-emergence; CENCY; alone, 560 g/ha; read-out: % visual injury Obs
[25] = system: Veronica hederifolia (ivyleaf speedwell, VERHE); assay: Greenhouse postemergence trial VERHE; type: in vivo
[26] = system: Anthemis arvensis (field chamomile, ANTAR); assay: Greenhouse postemergence trial ANTAR; type: in vivo; settings: Anthemis arvensis, post-emergence; ANTAR; alone, 560 g/ha; read-out: % visual injury Obs
Experimental: as §1, §2, §3, §4

[27] = system: Matricaria inodora (false chamomile, MATIN); assay: Greenhouse postemergence trial MATIN; type: in vivo; settings: Tripleurospermum inodorum, post-emergence; MATIN; alone, 560 g/ha; read-out: % visual injury Obs
[28] = system: Brassica napus (spring rape, BRSNN); assay: Greenhouse postemergence trial BRSNN; type: in vivo; settings: BRSNN; alone 280 g/ha
[29] = system: Matricaria discoidea (pineapple weed, MATMT); assay: Greenhouse postemergence trial MATMT; type: in vivo
[30] = system: Hordeum vulgare (spring barley, HORVS); type: in vivo; settings: HORVS
[31] = system: Lamium purpureum (purple deadnettle, LAMPU); assay: Greenhouse postemergence trial LAMPU; settings: Lamium purpureum, post-emergence, read-out: % visual injury Obs
[32] = system: Hordeum vulgare (winter barley, HORVW); assay: Greenhouse postemergence crop phytotoxicity HORVW; type: in vivo; settings: HORVW; alone, 560 g/ha
[33] = Dichlorprop-K 280 g/ha (Table 40)

Compound: CC(Oc1ccc(Cl)cc1Cl)C(=O)[O-].[K+] (centres unmarked) [Dichlorprop-K]
- % visual injury (Obs) [1]: 70%
- CHEAL % visual injury Obs [1, 33]: 60%
- VIOTR % visual injury Obs [2, 33]: 65%
- ABUTH % visual injury Obs [3]: 40%
- POLCO % visual injury Obs [4, 33]: 0%
- % visual injury (Obs) ([4]; POLCO): 18%
- % visual injury (Obs) ([5]; CIRAR, alone 280 g/ha): 15%
- CIRAR % visual injury Obs [5, 33]: 63%
- % visual injury (Obs) [6]: 85%
- AMARE % visual injury Obs [6, 33]: 10%
- IPOHE % visual injury Obs [7]: 75%
- STEME % visual injury Obs [8, 33]: 0%
- % visual injury (Obs) ([9]; BRSNW, alone 280 g/ha): 63%
- % visual injury (Obs) ([10]; MATCH): 20%
- HELAN % visual injury Obs [11]: 90%
- % visual injury (Obs) ([12]; alone 280 g/ha): 78%
- RUMOB % visual injury Obs [13]: 73%
- KCHSC % visual injury Obs [14, 33]: 63%
- % visual injury (Obs) ([14]; KCHSC): 60%
- GLXMA % visual injury Obs [15]: 33%

Compound: O=C(O)COc1nc(Cl)c(Cl)cc1Cl [Triclopyr]
- % visual injury (Obs) [1]: 53%
- % visual injury (Obs) ([16]; alone 280 g/ha): 0%
- % visual injury Obs ([16]; alone, 560 g/ha): 0%
- pest or weed control at 560 g/ha ([2]; Viola tricolor, post-emergence, read-out: % visual injury Obs): 70%
- pest or weed control at 560 g/ha [17]: 75%
- VERVE % visual injury Obs ([18]; Triclopyr 45 g/ha (Table 39)): 0%
- VERVE % visual injury Obs ([18]; Triclopyr 60 g/ha (Table 39)): 0%
- pest or weed control at 560 g/ha ([18]; Veronica persica, post-emergence, VERPE, alone, 560 g/ha, read-out: % visual injury Obs): 60%
- % visual injury Obs [19]: 0%
- pest or weed control at 560 g/ha ([20]; Papaver rhoeas, post-emergence, PAPRH-R, alone, 560 g/ha, read-out: % visual injury Obs): 50%
- PAPRH-R % visual injury Obs ([20]; Triclopyr 45 g/ha (Table 39)): 10%
- PAPRH-R % visual injury Obs ([20]; Triclopyr 60 g/ha (Table 39)): 10%
- pest or weed control at 560 g/ha ([4]; Fallopia convolvulus, post-emergence, POLCO, alone, 560 g/ha, read-out: % visual injury Obs): 30%
- % visual injury (Obs) ([4]; POLCO): 13%
- pest or weed control at 560 g/ha ([5]; Cirsium arvense, post-emergence, CIRAR, alone, 560 g/ha, read-out: % visual injury Obs): 75%
- pest or weed control at 560 g/ha [21]: 20%
- pest or weed control at 560 g/ha [22]: 25%
- % visual injury (Obs) ([23]; alone 280 g/ha): 45%
- pest or weed control at 560 g/ha ([23]; Salsola kali, post-emergence, alone, 560 g/ha, read-out: % visual injury Obs): 50%
- % visual injury (Obs) [6]: 45%
- pest or weed control at 560 g/ha [24]: 100%
- VERHE % visual injury Obs ([25]; Triclopyr 45 g/ha (Table 39)): 10%
- VERHE % visual injury Obs ([25]; Triclopyr 60 g/ha (Table 39)): 15%
- pest or weed control at 560 g/ha ([25]; Veronica hederifolia, post-emergence, VERHE, alone, 560 g/ha, read-out: % visual injury Obs): 65%
- pest or weed control at 560 g/ha [26]: 40%
- pest or weed control at 560 g/ha ([8]; Stellaria media, post-emergence, STEME, alone, 560 g/ha, read-out: % visual injury Obs): 30%
- plant injury at 560 g/ha ([9]; Brassica napus, post-emergence, BRSNW, alone, 560 g/ha, read-out: % visual injury Obs): 60%
- BRSNW % visual injury Obs ([9]; Triclopyr 45 g/ha (Table 39)): 10%
- BRSNW % visual injury Obs ([9]; Triclopyr 60 g/ha (Table 39)): 10%
- % visual injury (Obs) ([10]; MATCH): 5%
- pest or weed control at 560 g/ha ([10]; Matricaria chamomilla, post-emergence, MATCH, alone, 560 g/ha, read-out: % visual injury Obs): 40%
- MATCH % visual injury Obs ([10]; Triclopyr 45 g/ha (Table 39)): 10%
- MATCH % visual injury Obs ([10]; Triclopyr 60 g/ha (Table 39)): 10%
- pest or weed control at 560 g/ha [27]: 0%
- pest or weed control at 560 g/ha ([12]; Mutarda arvensis, post-emergence, alone, 560 g/ha, read-out: % visual injury Obs): 100%
- % visual injury (Obs) [28]: 50%
- pest or weed control at 560 g/ha ([29]; Matricaria discoidea, post-emergence, MATMT, alone, 560 g/ha, read-out: % visual injury Obs): 10%
- MATMT % visual injury Obs ([29]; Triclopyr 45 g/ha (Table 39)): 20%
- MATMT % visual injury Obs ([29]; Triclopyr 60 g/ha (Table 39)): 25%
- % visual injury (Obs) ([30]; alone 280 g/ha): 0%
- % visual injury Obs ([30]; alone, 560 g/ha): 0%
- pest or weed control at 560 g/ha ([14]; Bassia scoparia, post-emergence, KCHSC, alone, 560 g/ha, read-out: % visual injury Obs): 75%
- % visual injury (Obs) ([14]; KCHSC): 23%
- pest or weed control at 560 g/ha [31]: 65%
- % visual injury Obs [32]: 0%

Source: patent US12568967B2, “Compositions comprising pyridine carboxylate herbicides with synthetic auxin herbicides or auxin transport inhibitors” (priority 2018, dated 2026)
